Data on 41 molecules can be found in US11884627B2, “Compounds and compositions for treating conditions associated with LPA receptor activity” (Lhotse Bio, Inc., priority 2022, dated 2024).

SMILES strings stand for the structures. Read-outs that look alike come from different tables or passages of the source.

The IC50 is the concentration that gives 50% inhibition.

This test deals with T1, human LPA1 (Homo sapiens, UniProt Q92633).
T1 construct: expressed in transfected cells; host or cells: CHO-K1
Nature of the test: In vitro LPA1 calcium flux antagonist assay - Bioduro protocol. The format is cell-based. The note with it: CHO-K1 cells overexpressing human LPA1 and G15a, LPA challenge at EC80. The method, then:
In Vitro LPA1 Calcium Flux Antagonist Assay—Bioduro Protocol
CHO-K1 cells overexpressing human LPA1 and G15a were seeded at a total volume of 20 μL (15000 cells/well) into Matrigel pre-coated 384-well plates (corning −3764) and incubated at 37° C. After overnight incubation, the cells were serum starved for 4 h. Assays were performed in dye loading buffer containing 1× Fluo-8 AM (AAT Bioquest, 21080) and 2.5 mM probenecid (Thermo Fisher, 36400) in HBSS/20 mM Hepes. After cell starvation, the medium was replaced with 20 μL of dye loading buffer and incubated at 37° C., for 30 min. Then 5 μL of 5× compound titrated in dye loading buffer was added to the cells and incubated for 30 min followed by LPA challenge at EC80. Calcium mobilization was measured on a FLIPR Tetra (MSD). For LPA EC80 determination, starved cells were incubated with 20 μL of dye loading buffer for 1 h, then 5 μL of 5×LPA titrated in dye loading buffer was added to the cells. Calcium signals induced by LPA was monitors on a FLIPR.
Percentage inhibition is calculated using the following formula: % Inhibition=100%×(1−(mean RFU of test sample−mean RFU of DMSO)/(mean RFU of LPA control−mean RFU of DMSO)).
Table B3 and Table B4 show the biological activity of compounds in in vitro LPA1 Calcium flux antagonist assay—Bioduro protocol.
For orientation: Calcium flux is commonly read through the fluorescence of an indicator in the cells.

[1] abbreviates: calcium mobilization on FLIPR Tetra, read-out: IC50.
The mark [2] stands for this setting: Table B3, read-out: Activity (IC50 class).

T1 sequence (Q92633 whole entry): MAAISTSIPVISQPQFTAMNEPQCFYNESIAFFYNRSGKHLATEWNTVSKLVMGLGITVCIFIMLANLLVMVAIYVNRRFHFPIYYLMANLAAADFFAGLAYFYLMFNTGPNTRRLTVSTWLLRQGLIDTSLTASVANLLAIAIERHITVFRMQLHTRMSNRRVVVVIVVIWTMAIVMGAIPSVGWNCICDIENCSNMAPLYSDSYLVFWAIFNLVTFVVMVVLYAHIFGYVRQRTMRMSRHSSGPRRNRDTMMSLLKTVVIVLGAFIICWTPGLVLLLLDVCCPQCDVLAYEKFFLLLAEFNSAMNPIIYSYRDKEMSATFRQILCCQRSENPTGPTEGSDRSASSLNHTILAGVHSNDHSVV

`COc1cc(OC)c(C)c(-c2ccc(NC3(C(=O)O)CCOCC3)cc2COC2CCCC2)c1` [Compound 179]: the 50% inhibitory concentration (IC50) under setting [1] stood at 24.9 nM and the half-maximal inhibitory concentration (IC50) under setting [2] is under 100 nM.
`COc1cc(OC)c(C)c(-c2c(F)cc(NC3(C(=O)O)CCOCC3)cc2COC2CCCC2)c1` [Compound 180]: the half-maximal inhibitory concentration (IC50) runs as follows: under setting [1], 39.7 nM; under setting [2], under 100 nM.
`COc1c(C)ccc(-c2ccc(NC3(C(=O)O)CCOCC3)cc2COC2CCCC2)c1C` [Compound 181]: the IC50 under setting [1] worked out at 55.2 nM and the IC50 under setting [2] was under 100 nM.
Regarding `COc1cc(-c2ccc(NC3(C(=O)O)CCOCC3)cc2COC2CC3CC3C2)cc(OC)c1C` (stereo not shown) [Compound 182, 4-((2-((bicyclo[3.1.0]hexan-3-yloxy)methyl)-3′,5′-dimethoxy-4′-methyl-[1,1′-biphenyl]-4-yl)amino)tetrahydro-2H-pyran-4-carboxylic acid], the half-maximal inhibitory concentration (IC50) under setting [1] came to 9.7 nM and the half-inhibitory concentration (IC50) under setting [2] was under 100 nM.
In the case of `COc1cc(-c2c(Cl)cc(NC3(C(=O)O)CCOCC3)cc2COC2CCCC2)cc(OC)c1C` [Compound 184], the IC50 is 33.2 nM under setting [1] and under 100 nM under setting [2].
Turning to `COc1cc(OC)cc(-c2c(C)cc(NC3(C(=O)O)Cc4ccccc4C3)cc2COC2CCCC2)c1` [Compound 188], the 50% inhibitory concentration (IC50) under setting [1] is 2730 nM and the IC50 under setting [2] was over 1000 nM.
As for `COc1c(C(C)=O)ccc(-c2ccc(NC3(C(=O)O)CCOCC3)cc2COC2CCCC2)c1C` [Compound 189], the half-maximal inhibitory concentration (IC50) reads like this: under setting [1], 52.5 nM; under setting [2], under 100 nM.
The like results for `COc1cc(-c2ccc(OC3(C(=O)O)CCOCC3)cc2COC2CCCC2)c(C)c(OC)c1C` [Compound 191] were, in that order, 34.3 nM and under 100 nM.
The like results for `COc1cc(-c2ccc(OC3(C(=O)O)CCOCC3)cc2COC2CCCC2)c(Cl)c(OC)c1C` [Compound 192, 4-((2′-chloro-2-((cyclopentyloxy)methyl)-3′,5′-dimethoxy-4′-methyl-[1,1′-biphenyl]-4-yl)oxy)tetrahydro-2H-pyran-4-carboxylic acid] were, in that order, 15.1 nM and under 100 nM.
In the case of `COc1cc(-c2ccc(NC3(C(=O)O)CCOCC3)cc2COC2CCCC2)c2c(c1C)OCC2` [Compound 193, 4-((3-((cyclopentyloxy)methyl)-4-(6-methoxy-7-methyl-2,3-dihydrobenzofuran-4-yl)phenyl)amino)tetrahydro-2H-pyran-4-carboxylic acid], the half-maximal inhibitory concentration (IC50) is 31.9 nM under setting [1] and under 100 nM under setting [2].
The like results for `CCc1c(-c2ccc(OC3(C(=O)O)CCOCC3)cc2COC2CCCC2)cc(OC)c(C)c1OC` [Compound 194] were, in that order, 79.8 nM and under 100 nM.
With `COC(=O)N1CC(Nc2ccc(-c3cc(OC)c(C)c(OC)c3C)c(COC3CCCC3)c2)(C(=O)O)C1` [Compound 195], the half-maximal inhibitory concentration (IC50) was 760 nM under setting [1] and over 1000 nM under setting [2].
For `COc1cc(-c2ccc(NC3(C(=O)O)CC(OC)C3)cc2COC2CCCC2)c(C)c(OC)c1C` (stereo not shown) [Compound 196], the IC50 is, setting by setting: under setting [1], 30.1 nM; under setting [2], under 100 nM.
For the molecule `COc1cc(-c2ccc(NC3(C(=O)O)CC(OC)C3)cc2COC2CCCC2)c(C)c(OC)c1C` (stereo not shown) [Compound 197], the concentration for half-maximal inhibition (IC50) reads like this: under setting [1], 12.5 nM; under setting [2], under 100 nM.
Consider `COc1cc2c(c(-c3ccc(NC4(C(=O)O)CCOCC4)cc3COC3CCCC3)c1)CCO2` [Compound 198], for which the IC50 is, setting by setting: under setting [1], 232 nM; under setting [2], 100 to 1000 nM.
In the case of `COc1cc2c(c(-c3ccc(NC4(C(=O)O)CCOCC4)cc3COC3CCCC3)c1)OCO2` [Compound 199], the IC50 under setting [1] was determined as 3210 nM and the IC50 under setting [2] is over 1000 nM.
For the molecule `COc1cc(OC)cc(-c2ccc(NC3(C(=O)O)CCOCC3)cc2CCN2CCCC2=O)c1` [Compound 202], the IC50 was over 10000 nM under setting [1] and over 1000 nM under setting [2].
Take `CCc1c(-c2ccc(NC3(C(=O)O)CCOCC3)cc2COC2CCCC2)cc(OC)c(C)c1OC` [Compound 203]: the IC50 runs as follows: under setting [1], 26 nM; under setting [2], under 100 nM.
Take `COc1cc(-c2ccc(NC3(C(=O)O)CCC(OC)CC3)cc2COC2CCCC2)cc(OC)c1C` (stereo not shown) [Compound 205]: the IC50 by setting is: under setting [1], 1260 nM; under setting [2], over 1000 nM.
With `COc1cc(-c2ccc(NC3(C(=O)O)CCC(O)CC3)cc2COC2CCCC2)cc(OC)c1C` (stereo not shown) [Compound 206], the IC50 is, setting by setting: under setting [1], 476 nM; under setting [2], 100 to 1000 nM.
Turning to `COc1cc(-c2ccc(NC3(C(=O)O)CCOCC3)cc2COC2CCCC2)c(Cl)c(OC)n1` [Compound 207, 4-((4-(3-chloro-2,6-dimethoxypyridin-4-yl)-3-((cyclopentyloxy)methyl)phenyl)amino)tetrahydro-2H-pyran-4-carboxylic acid], the IC50 by setting is: under setting [1], 30.4 nM; under setting [2], under 100 nM.
Regarding `COC(=O)NC1CCC(Nc2ccc(-c3cc(OC)c(C)c(OC)c3)c(COC3CCCC3)c2)(C(=O)O)CC1` (stereo not shown) [Compound 208], the IC50 is 56.4 nM under setting [1] and under 100 nM under setting [2].
The like results for `COc1cc(-c2ccc(OC3(C(=O)O)CCOCC3)cc2COC2CCCC2)c(F)c(OC)c1C` [Compound 209, 4-((2-((cyclopentyloxy)methyl)-2′-fluoro-3′,5′-dimethoxy-4′-methyl-[1,1′-biphenyl]-4-yl)oxy)tetrahydro-2H-pyran-4-carboxylic acid] were, in that order, 15.5 nM and under 100 nM.
Regarding `COC(=O)N1CCCC(Nc2cc(C)c(-c3cc(OC)cc(OC)c3)c(COC3CCCC3)c2)(C(=O)O)C1` (stereo not shown) [Compound 210], the half-inhibitory concentration (IC50) under setting [1] was over 10000 nM and the 50% inhibitory concentration (IC50) under setting [2] was over 1000 nM.
Consider `COC(=O)N1CCCC(Nc2cc(C)c(-c3cc(OC)cc(OC)c3)c(COC3CCCC3)c2)(C(=O)O)C1` (stereo not shown) [Compound 211], for which the IC50 under setting [1] is over 10000 nM and the IC50 under setting [2] was over 1000 nM.
As for `COc1cc(-c2ccc(NC3(C(=O)O)CCOCC3)cc2COC2(C)CCCC2)c(C)c(OC)c1C` [Compound 212], the IC50 under setting [1] amounted to 11.2 nM and the half-maximal inhibitory concentration (IC50) under setting [2] was under 100 nM.
As for `CCOC1CC(Nc2ccc(-c3cc(OC)c(C)c(OC)c3C)c(COC3CCCC3)c2)(C(=O)O)C1` (stereo not shown) [Compound 213], the IC50 is, setting by setting: under setting [1], 58.7 nM; under setting [2], under 100 nM.
Take `CCOC1CC(Nc2ccc(-c3cc(OC)c(C)c(OC)c3C)c(COC3CCCC3)c2)(C(=O)O)C1` (stereo not shown) [Compound 214]: the IC50 runs as follows: under setting [1], 58.9 nM; under setting [2], under 100 nM.
On to `COc1cc(-c2ccc(NC3(C(=O)O)CCOCC3)cc2COC2CCCC2)c(C(F)F)c(OC)c1C` [Compound 215], for which the IC50 under setting [1] turned out to be 10.8 nM and the half-inhibitory concentration (IC50) under setting [2] was under 100 nM.
Regarding `COc1cc(-c2ccc(NC3(C(=O)O)CCOCC3)cc2COC2CCCC2)cc(O)n1` [Compound 218], the IC50 is over 10000 nM under setting [1] and over 1000 nM under setting [2].
The like results for `COc1cc(-c2ccc(NC3(C(=O)O)CCOCC3)cc2COC2CCC3(CC3)C2)cc(OC)c1C` (stereo not shown) [Compound 219] were, in that order, 58 nM and under 100 nM.
For `COc1cc(-c2ccc(NC3(C(=O)O)CCOCC3)cc2COC2CCCC2)c(OC)c(OC)c1C` [Compound 220], the IC50 is 81.6 nM under setting [1] and 100 to 1000 nM under setting [2].
Consider `COc1cc(OC)c(F)c(-c2ccc(OC3(C(=O)O)CCOCC3)cc2COC2CCCC2)c1` [Compound 222], for which the IC50 was 167 nM under setting [1] and 100 to 1000 nM under setting [2].
On to `COc1cc(-c2ccc(NC3(C(=O)O)C[C@@H](C)O[C@@H](C)C3)cc2COC2CCCC2)c(F)c(OC)c1C` (stereo partly drawn) [Compound 225, (2R,6S)-4-((2-((cyclopentyloxy)methyl)-2′-fluoro-3′,5′-dimethoxy-4′-methyl-[1,1′-biphenyl]-4-yl)amino)-2,6-dimethyltetrahydro-2H-pyran-4-carboxylic acid], for which the half-inhibitory concentration (IC50) runs as follows: under setting [1], 320 nM; under setting [2], 100 to 1000 nM.
Take `COc1cc(OC)c(F)c(-c2ccc(NC3(C(=O)O)CCOCC3)cc2COC2CCCC2)c1` [Compound 226]: the IC50 was 22.2 nM under setting [1] and under 100 nM under setting [2].
In the case of `COc1cc(-c2ccc(NC3(C(=O)O)CCOCC3)c(F)c2COC2CCCC2)c(F)c(OC)c1C` [Compound 227], the IC50 reads like this: under setting [1], 25 nM; under setting [2], under 100 nM.
Consider `COc1cc(OC)c(F)c(-c2ccc(NC3(C(=O)O)CCOCC3)cc2CCC2CCCC2)c1` [Compound 228], for which the IC50 is 2.63 nM under setting [1] and under 100 nM under setting [2].
The like results for `CCOc1cccc(-c2ccc(NC3(C(=O)O)CCOCC3)cc2COC2CCCC2)c1C` [Compound 229, 4-((2-((cyclopentyloxy)methyl)-3′-ethoxy-2′-methyl-[1,1′-biphenyl]-4-yl)amino)tetrahydro-2H-pyran-4-carboxylic acid] were, in that order, 5.28 nM and under 100 nM.
The like results for `COc1cc(-c2ccc(OC3(C(=O)O)CCOCC3)cc2COC2CCCC2)c(Cl)c(OC)n1` [Compound 230] were, in that order, 139 nM and 100 to 1000 nM.
As to `COc1cc(-c2ccc(OCC3(C(=O)O)CCOCC3)cc2COC2CCCC2)c(F)c(OC)c1C` [Compound 232], the half-inhibitory concentration (IC50) under setting [1] was determined as 756 nM and the IC50 under setting [2] was in the range of 100 to 1000 nM.
The like results for `COc1cc(-c2c(CC#N)cc(NC3(C(=O)O)CCOCC3)cc2COC2CCCC2)cc(OC)c1C` [Compound 233] were, in that order, 914 nM and 100 to 1000 nM.
